Laboratory results reported in patent publication US9458123B2, “Methods, pharmaceutical compositions, therapeutic systems, and compounds for treating B cell malignancies” (University of Rochester, priority 2012, dated 2016).

Assays:
[1] = system: p53 signaling in OCI-Ly10 cells; experiment: Nuclear p53 and p21 expression, western blot; assay type: cell-based; conditions: 3.5 hours
Protocol: OCI-Ly10 cells were treated with indicated concentrations of NSC697923 for 3.5 hours. The level of p53 in the nuclear extract and the level of p21 in the whole cell lysates were analyzed by western blotting.

OCI-Ly10 cells = experiment: Apoptosis of OCI-Ly10 cells (western blot, 7AAD/annexin V flow cytometry); assay type: cell-based
Protocol: The indicated ABC DLBCL cells were seeded at 3×10^5 cells/ml in 6-well plates and cultured in the presence of DMSO (0.2%, control) or various concentrations of NSC697923 for 24 hours. The live and dead cells were counted using the trypan blue exclusion assay. Shown are the means from three separate experiments. The average number of live cells in the control was set at 100. […] The levels of the indicated proteins were analyzed by western blotting. For caspase 3 detection, a mixture of an antibody for the uncleaved form and an antibody specific for the cleaved form was used. In FIG. 7C, OCI-Ly10 cells were treated as in FIG. 7A. The apoptotic cells (Annexin V positive cells) were measured by flow cytometry as described in Example 1 infra. A representative result from three independent experiments is depicted. […] BrdU was then added into the culture medium for 30 minutes before the cell-cycle distribution of the treated cells was analyzed as described in Example 1 infra. Shown are the averages from two independent experiments. […] BrdU was then added into the culture medium for 30 minutes before the cell-cycle distribution of the treated cells was analyzed as described in Example 1 infra. Shown are the averages from two independent experiments.
(§1) Apoptosis was assayed using the 7AAD/annexin V apoptosis kit (BD Bioscience) as previously described (Kim et al., “Protein Kinase C-Associated Kinase is Required for NF-kappaB Signaling and Survival in Diffuse Large B-Cell Lymphoma Cells,” Blood 111:1644-1653 (2008), which is hereby incorporated by reference in its entirety). Analysis of the cell cycle distribution of the treated cells was carried out with propidium iodide (PI) and BrdU double staining as previously described (DeRan et al., “Assessing G1-to-S-Phase Progression after Genotoxic Stress,” Methods Mol. Biol. 782:221-230 (2011) and Su et al., “DNA Damage Induces Downregulation of Histone Gene Expression Through the G1 Checkpoint Pathway,” EMBO. J. 23:1133-1143 (2004), each of which is hereby incorporated by reference in its entirety).

ABC DLBCL cells = experiment: Growth of ABC DLBCL cells, trypan blue exclusion assay; assay type: cell-based; conditions: including OCI-Ly3 cells, 24 hours
Protocol: The indicated ABC DLBCL cells were seeded at 3×10^5 cells/ml in 6-well plates and cultured in the presence of DMSO (0.2%, control) or various concentrations of NSC697923 for 24 hours. The live and dead cells were counted using the trypan blue exclusion assay. Shown are the means from three separate experiments. The average number of live cells in the control was set at 100. […] The levels of the indicated proteins were analyzed by western blotting. For caspase 3 detection, a mixture of an antibody for the uncleaved form and an antibody specific for the cleaved form was used. In FIG. 7C, OCI-Ly10 cells were treated as in FIG. 7A. The apoptotic cells (Annexin V positive cells) were measured by flow cytometry as described in Example 1 infra. A representative result from three independent experiments is depicted. […] BrdU was then added into the culture medium for 30 minutes before the cell-cycle distribution of the treated cells was analyzed as described in Example 1 infra. Shown are the averages from two independent experiments. […] BrdU was then added into the culture medium for 30 minutes before the cell-cycle distribution of the treated cells was analyzed as described in Example 1 infra. Shown are the averages from two independent experiments. […]

Ubc13-Uev1A = biological target: T1, Ubc13-Uev1A (Homo sapiens, UniProt P61088); experiment: In vitro ubiquitination assay, Ubc13-Uev1A; assay type: biochemical
T1 construct: purchased Boston Biochem Inc E2-600 (Ubc13); E2-662 (Uev1A)
Protocol: The in vitro reaction, which contains purified E1, ubiquitin, Ubc13, and Uev1A, was carried out with or without the indicated concentrations of NSC697923. The reaction products were analyzed by a ubiquitin-specific antibody on western blots. FIG. 4B is the same as FIG. 4A, except that purified GST-TRAF6 was included as the E3 in the complete reaction as indicated. […] The assay was carried out as in FIG. 4B, except that UbcHSc instead of Ubc13-Uev1A was used as the E2 in the ubiquitination reaction.
The purified recombinant proteins used in the in vitro ubiquitination reactions were all purchased from Boston Biochem Inc, except GST-TRAF6, which was expressed and purified as described above. The reactions were carried out at 37° C. for 40 minutes in a buffer containing 50 mM Tris-HCl, pH 7.5, 5 mM MgCl2, 200 μM ATP, 120 μM ubiquitin (U-100H), and 0.1 μM E1 (E-304). For the Ubc13-mediated ubiquitin chain synthesis, the reaction mixture includes 0.2 μM Ubc13 (E2-600) and […] Uev1A (E2-662) with or without GST-TRAF6 as indicated. For UbcHSc-catalyzed ubiquitination, UbcHSc (E2-627), instead of Ubc13 and Uev1A, was used in the reaction. […] The reactions were terminated by the addition of an equal volume of SDSPAGE sample buffer, and the products were analyzed by western blotting with a ubiquitin specific antibody.

[2] = system: PMA-induced NF-κB activation in SUDHL-6 cells; experiment: IκBα phosphorylation after PMA, western blot; assay type: cell-based; conditions: SUDHL-6, PMA 100 ng/ml
Protocol: SUDHL-6, RAW264.7, and MEF cells were treated with NSC697923 or DMSO (control) for 1 hour before being stimulated with the PMA (100 ng/ml), RANKL (15 ng/ml), and LPS (1.5 μg/ml) for the indicated times. The levels of IκBα phosphorylation in the indicated samples were assessed by western blotting.

[3] = system: K63-linked ubiquitination and repair protein recruitment in U2OS cells; experiment: DNA double-strand break focus formation after γ-irradiation; assay type: cell-based; conditions: 1 μM, γ-irradiated 10 Gy
Protocol: Osteosarcoma U2OS cells were pretreated with 1 μM NSC697923 for 1 hour before γ-irradiated (10 Gy). 30 minutes after irradiation, the cells were fixed and stained with the monoclonal antibody FK2, which recognizes protein-conjugated, but not free, ubiquitin and marks the foci formed by K63-linked ubiquitinated proteins at sites of DSBs. […] U2OS cells were treated as described in FIG. 13A except that the focus formation of the indicated proteins is detected with their respective antibodies.

primary DLBCL cells = experiment: Apoptosis of primary DLBCL cells, annexin V; assay type: cell-based; conditions: primary cells from two DLBCL patients, 24 hours
Protocol: The primary cancer cells, prepared from two DLBCL patients and grown in culture medium for seven days, were seeded at 4.5×10^5 cells/mL and treated with the indicated concentrations of NSC697923 for 24 hours. The apoptotic cells were analyzed as described in FIG. 7C. Shown are the averages from two independent experiments.
as §1

T1 sequence (P61088 whole entry): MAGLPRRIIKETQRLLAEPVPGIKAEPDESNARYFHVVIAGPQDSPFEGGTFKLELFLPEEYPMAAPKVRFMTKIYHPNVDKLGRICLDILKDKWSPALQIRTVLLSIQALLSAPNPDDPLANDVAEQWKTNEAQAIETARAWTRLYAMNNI
T1 sequence (Q13404 whole entry partner): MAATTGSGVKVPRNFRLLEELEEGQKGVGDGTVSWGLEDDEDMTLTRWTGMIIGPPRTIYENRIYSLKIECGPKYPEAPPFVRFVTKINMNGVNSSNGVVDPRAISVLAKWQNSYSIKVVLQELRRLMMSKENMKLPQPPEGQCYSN

Cc1ccc(S(=O)(=O)c2ccc([N+](=O)[O-])o2)cc1 [NSC697923, 2-nitro-5-tosylfuran]
nuclear level of p53 protein [1]: increased | p21 expression [1]: increased | PARP (OCI-Ly10 cells; 5 hours): cleavage of PARP | caspase 3 (OCI-Ly10 cells; 5 hours): activation of caspase 3 | annexin V-positive cells (OCI-Ly10 cells; 24 hours): increase in annexin V-positive cells | proliferation and survival of ABC DLBCL cells (ABC DLBCL cells): induced proliferation arrest and cell death | polyubiquitin chain formation catalyzed by Ubc13-Uev1A (Ubc13-Uev1A; E1, ubiquitin, Ubc13, Uev1A, without E3): inhibited polyubiquitin chain formation catalyzed by Ubc13-Uev1A complex in a dose-dependent manner | ubiquitin chain formation catalyzed by Ubc13-Uev1A together with TRAF6 (Ubc13-Uev1A; GST-TRAF6 as E3): similarly inhibited by NSC697923 in a dose-dependent manner | PMA-induced NF-κB activation (IκBα phosphorylation) [2]: inhibiting | FK2 focus formation [3]: inhibition of FK2 focus formation | recruitment of 53BP1 to sites of DNA double-strand breaks [3]: inhibits recruitment | recruitment of BRCA1 to sites of DNA double-strand breaks [3]: inhibits recruitment | Annexin-positive (apoptotic) cells (primary DLBCL cells): increase in Annexinpositive (apoptotic) cells
